Experimental data taken from patent EP4691482A1, “LONG-ACTING CALCITONIN ANALOG” (Chengdu Aoda Biotechnology Co., Ltd., priority 2023, dated 2024).
pEC50: −log10 of the molar value.

Each molecule was assayed against T1, calcitonin receptors (CTR) (Homo sapiens, UniProt P30988) (assay: cAMP determination (HTRF, cAMP Dynamic 2 Kit) in cAMP Hunter HEK293-CT-R Gs cell line). Conditions: HEK293 cell line stably expressing CT-R; intracellular cAMP, HTRF.
T1 construct: expressed in transfected cells; host or cells: cAMP Hunter HEK293-CT-R Gs cell line (HEK293, stably transfected)
T1 sequence (P30988 25-474): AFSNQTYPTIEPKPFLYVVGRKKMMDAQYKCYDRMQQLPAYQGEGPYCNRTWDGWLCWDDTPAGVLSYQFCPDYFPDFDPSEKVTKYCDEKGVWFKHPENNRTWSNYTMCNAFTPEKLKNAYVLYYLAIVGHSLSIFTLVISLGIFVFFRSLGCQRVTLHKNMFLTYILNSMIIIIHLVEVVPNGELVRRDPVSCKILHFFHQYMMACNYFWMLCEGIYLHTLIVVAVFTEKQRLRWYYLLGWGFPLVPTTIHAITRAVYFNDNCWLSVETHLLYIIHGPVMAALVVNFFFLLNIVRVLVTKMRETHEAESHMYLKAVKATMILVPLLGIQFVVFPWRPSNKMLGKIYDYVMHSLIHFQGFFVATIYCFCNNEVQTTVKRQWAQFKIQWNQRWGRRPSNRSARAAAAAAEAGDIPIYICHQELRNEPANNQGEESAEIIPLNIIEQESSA
Format: cell-based
Source text: Upon activation by a ligand, Gas-coupled GPCRs can upregulate intracellular cAMP level, and cAMP, as a second messenger, can mediate a series of cellular responses. The cAMP Hunter HEK293-CT-R Gs cell line, which overexpresses Gas-coupled calcitonin receptors (CTR), was used. The binding of calcitonin (or an analog thereof) to the overexpressed CTR upregulates intracellular cAMP level. The amount of intracellular cAMP produced after activation by the calcitonin (or an analog thereof) was detected using a cAMP Dynamic 2 Kit to evaluate the biological activity of the calcitonin (or an analog thereof). HEK293 cell line stably expressing CT-R was used. Stably transfected cells were stimulated with various concentrations of agonists. The time-resolved fluorescence resonance energy signal from the cells after stimulation with different doses was measured using HTRF technology, from which the biological activity of the agonist was subsequently calculated.
In the case of `CC(C)C[C@H](NC(=O)[C@H](CCCCN)NC(=O)CNC(=O)[C@H](CC(C)C)NC(=O)[C@@H](NC(=O)[C@@H]1CSSC[C@H](N)C(=O)N[C@@H](CO)C(=O)N[C@@H](CC(N)=O)C(=O)N[C@@H](CC(C)C)C(=O)N[C@@H](CO)C(=O)N[C@@H]([C@@H](C)O)C(=O)N1)C(C)C)C(=O)N[C@@H](CO)C(=O)N[C@@H](CCC(N)=O)C(=O)N[C@@H](CCC(=O)O)C(=O)N[C@@H](CC(C)C)C(=O)N[C@@H](Cc1c[nH]cn1)C(=O)N[C@@H](CCCCNC(=O)CNC(=O)CNC(=O)CNC(=O)CC[C@H](NC(=O)CCCCCCCCCCCCCCCCCCC(=O)O)C(=O)O)C(=O)N[C@@H](CC(C)C)C(=O)N[C@@H](CCC(N)=O)C(=O)N[C@H](C(=O)N[C@@H](Cc1ccc(O)cc1)C(=O)N1CCC[C@H]1C(=O)N[C@@H](CCCNC(=N)N)C(=O)N[C@H](C(=O)N[C@@H](CC(N)=O)C(=O)N[C@H](C(=O)NCC(=O)N[C@@H](CO)C(=O)NCC(=O)N[C@H](C(=O)N1CCC[C@H]1C(N)=O)[C@@H](C)O)[C@@H](C)O)[C@@H](C)O)[C@@H](C)O` [Compound 12], the pEC50 was 11.41. In the case of `CC(C)C[C@H](NC(=O)[C@H](CCCCN)NC(=O)CNC(=O)[C@H](CC(C)C)NC(=O)[C@@H](NC(=O)[C@@H]1CSSC[C@H](N)C(=O)N[C@@H](CO)C(=O)N[C@@H](CC(N)=O)C(=O)N[C@@H](CC(C)C)C(=O)N[C@@H](CO)C(=O)N[C@@H]([C@@H](C)O)C(=O)N1)C(C)C)C(=O)N[C@@H](CO)C(=O)N[C@@H](CCC(N)=O)C(=O)N[C@@H](CCC(=O)O)C(=O)N[C@@H](CC(C)C)C(=O)N[C@@H](Cc1c[nH]cn1)C(=O)N[C@@H](CCCCNC(=O)COCCOCCNC(=O)COCCOCCNC(=O)CC[C@H](NC(=O)CCCCCCCCCCCCCCCCCCC(=O)O)C(=O)O)C(=O)N[C@@H](CC(C)C)C(=O)N[C@@H](CCC(N)=O)C(=O)N[C@H](C(=O)N[C@@H](Cc1ccc(O)cc1)C(=O)N1CCC[C@H]1C(=O)N[C@@H](CCCNC(=N)N)C(=O)N[C@H](C(=O)N[C@@H](CC(N)=O)C(=O)N[C@H](C(=O)NCC(=O)N[C@@H](CO)C(=O)NCC(=O)N[C@H](C(=O)N1CCC[C@H]1C(N)=O)[C@@H](C)O)[C@@H](C)O)[C@@H](C)O)[C@@H](C)O` [Compound 16, Cys-Ser-Asn-Leu-Ser-Thr-Cys-Val-Leu-Gly-Lys-Leu-Ser-Gln-Glu-Leu-His-Lys(AEEA-AEEA-γGlu-eicosanedioic acid)-Leu-Gln-Thr-Tyr-Pro-Arg-Thr-Asn-Thr-Gly-Ser-Gly-Thr-Pro-NH2], the pEC50 was 11.54. `CC(C)C[C@H](NC(=O)[C@H](CCCCN)NC(=O)CNC(=O)[C@H](CC(C)C)NC(=O)[C@@H](NC(=O)[C@@H]1CSSC[C@H](N)C(=O)N[C@@H](CO)C(=O)N[C@@H](CC(N)=O)C(=O)N[C@@H](CC(C)C)C(=O)N[C@@H](CO)C(=O)N[C@@H]([C@@H](C)O)C(=O)N1)C(C)C)C(=O)N[C@@H](CO)C(=O)N[C@@H](CCC(N)=O)C(=O)N[C@@H](CCC(=O)O)C(=O)N[C@@H](CC(C)C)C(=O)N[C@@H](Cc1c[nH]cn1)C(=O)N[C@@H](CCCCNC(=O)CNC(=O)CNC(=O)CC[C@H](NC(=O)CCCCCCCCCCCCCCCCCCC(=O)O)C(=O)O)C(=O)N[C@@H](CC(C)C)C(=O)N[C@@H](CCC(N)=O)C(=O)N[C@H](C(=O)N[C@@H](Cc1ccc(O)cc1)C(=O)N1CCC[C@H]1C(=O)N[C@@H](CCCNC(=N)N)C(=O)N[C@H](C(=O)N[C@@H](CC(N)=O)C(=O)N[C@H](C(=O)NCC(=O)N[C@@H](CO)C(=O)NCC(=O)N[C@H](C(=O)N1CCC[C@H]1C(N)=O)[C@@H](C)O)[C@@H](C)O)[C@@H](C)O)[C@@H](C)O` [Compound 11] showed a pEC50 of 11.37. In the case of `CC(C)C[C@H](NC(=O)[C@H](CCCCN)NC(=O)CNC(=O)[C@H](CC(C)C)NC(=O)[C@@H](NC(=O)[C@@H]1CSSC[C@H](N)C(=O)N[C@@H](CO)C(=O)N[C@@H](CC(N)=O)C(=O)N[C@@H](CC(C)C)C(=O)N[C@@H](CO)C(=O)N[C@@H]([C@@H](C)O)C(=O)N1)C(C)C)C(=O)N[C@@H](CO)C(=O)N[C@@H](CCC(N)=O)C(=O)N[C@@H](CCC(=O)O)C(=O)N[C@@H](CC(C)C)C(=O)N[C@@H](Cc1c[nH]cn1)C(=O)N[C@@H](CCCCNC(=O)CNC(=O)CNC(=O)CNC(=O)CNC(=O)CC[C@H](NC(=O)CCCCCCCCCCCCCCCCCCC(=O)O)C(=O)O)C(=O)N[C@@H](CC(C)C)C(=O)N[C@@H](CCC(N)=O)C(=O)N[C@H](C(=O)N[C@@H](Cc1ccc(O)cc1)C(=O)N1CCC[C@H]1C(=O)N[C@@H](CCCNC(=N)N)C(=O)N[C@H](C(=O)N[C@@H](CC(N)=O)C(=O)N[C@H](C(=O)NCC(=O)N[C@@H](CO)C(=O)NCC(=O)N[C@H](C(=O)N1CCC[C@H]1C(N)=O)[C@@H](C)O)[C@@H](C)O)[C@@H](C)O)[C@@H](C)O` [Compound 13], the pEC50 was 11.46.

Same assay, conditions: relative to Salmon Calcitonin = 100.0; HEK293 CT-R cAMP
With `CC(C)C[C@H](NC(=O)[C@H](CCCCN)NC(=O)CNC(=O)[C@H](CC(C)C)NC(=O)[C@@H](NC(=O)[C@@H]1CSSC[C@H](N)C(=O)N[C@@H](CO)C(=O)N[C@@H](CC(N)=O)C(=O)N[C@@H](CC(C)C)C(=O)N[C@@H](CO)C(=O)N[C@@H]([C@@H](C)O)C(=O)N1)C(C)C)C(=O)N[C@@H](CO)C(=O)N[C@@H](CCC(N)=O)C(=O)N[C@@H](CCC(=O)O)C(=O)N[C@@H](CC(C)C)C(=O)N[C@@H](Cc1c[nH]cn1)C(=O)N[C@@H](CCCCNC(=O)COCCOCCOCCOCCNC(=O)CC[C@H](NC(=O)CCCCCCCCCCCCCCCCCCC(=O)O)C(=O)O)C(=O)N[C@@H](CC(C)C)C(=O)N[C@@H](CCC(N)=O)C(=O)N[C@H](C(=O)N[C@@H](Cc1ccc(O)cc1)C(=O)N1CCC[C@H]1C(=O)N[C@@H](CCCNC(=N)N)C(=O)N[C@H](C(=O)N[C@@H](CC(N)=O)C(=O)N[C@H](C(=O)NCC(=O)N[C@@H](CO)C(=O)NCC(=O)N[C@H](C(=O)N1CCC[C@H]1C(N)=O)[C@@H](C)O)[C@@H](C)O)[C@@H](C)O)[C@@H](C)O` [Compound 4, Cys-Ser-Asn-Leu-Ser-Thr-Cys-Val-Leu-Gly-Lys-Leu-Ser-Gln-Glu-Leu-His-Lys(PEG4CH2CO-yGlu-eicosanedioic acid)-Leu-Gln-Thr-Tyr-Pro-Arg-Thr-Asn-Thr-Gly-Ser-Gly-Thr-Pro-NH2] the “Relative Activity%” value was 316.7%. In the case of `CC(C)C[C@H](NC(=O)[C@H](CCCCN)NC(=O)CNC(=O)[C@H](CC(C)C)NC(=O)[C@@H](NC(=O)[C@@H]1CSSC[C@H](N)C(=O)N[C@@H](CO)C(=O)N[C@@H](CC(N)=O)C(=O)N[C@@H](CC(C)C)C(=O)N[C@@H](CO)C(=O)N[C@@H]([C@@H](C)O)C(=O)N1)C(C)C)C(=O)N[C@@H](CO)C(=O)N[C@@H](CCC(N)=O)C(=O)N[C@@H](CCC(=O)O)C(=O)N[C@@H](CC(C)C)C(=O)N[C@@H](Cc1c[nH]cn1)C(=O)N[C@@H](CCCCNC(=O)COCCOCCOCCNC(=O)CC[C@H](NC(=O)CCCCCCCCCCCCCCCCC(=O)O)C(=O)O)C(=O)N[C@@H](CC(C)C)C(=O)N[C@@H](CCC(N)=O)C(=O)N[C@H](C(=O)N[C@@H](Cc1ccc(O)cc1)C(=O)N1CCC[C@H]1C(=O)N[C@@H](CCCNC(=N)N)C(=O)N[C@H](C(=O)N[C@@H](CC(N)=O)C(=O)N[C@H](C(=O)NCC(=O)N[C@@H](CO)C(=O)NCC(=O)N[C@H](C(=O)N1CCC[C@H]1C(N)=O)[C@@H](C)O)[C@@H](C)O)[C@@H](C)O)[C@@H](C)O` [Compound 18, Cys-Ser-Asn-Leu-Ser-Thr-Cys-Val-Leu-Gly-Lys-Leu-Ser-Gln-Glu-Leu-His-Lys(PEG3CH2CO-γGlu-octadecanedioic acid)-Leu-Gln-Thr-Tyr-Pr o-Arg-Thr-Asn-Thr-Gly-Ser-Gly-Thr-Pro-NH2], the “Relative Activity%” value was 271.4%. In the case of `CC(C)C[C@H](NC(=O)[C@H](CCCCN)NC(=O)CNC(=O)[C@H](CC(C)C)NC(=O)[C@@H](NC(=O)[C@@H]1CSSC[C@H](N)C(=O)N[C@@H](CO)C(=O)N[C@@H](CC(N)=O)C(=O)N[C@@H](CC(C)C)C(=O)N[C@@H](CO)C(=O)N[C@@H]([C@@H](C)O)C(=O)N1)C(C)C)C(=O)N[C@@H](CO)C(=O)N[C@@H](CCC(N)=O)C(=O)N[C@@H](CCC(=O)O)C(=O)N[C@@H](CC(C)C)C(=O)N[C@@H](Cc1c[nH]cn1)C(=O)N[C@@H](CCCCNC(=O)COCCOCCOCCNC(=O)CC[C@H](NC(=O)CCCCCCCCCCCCCCCCCCC(=O)O)C(=O)O)C(=O)N[C@@H](CC(C)C)C(=O)N[C@@H](CCC(N)=O)C(=O)N[C@H](C(=O)N[C@@H](Cc1ccc(O)cc1)C(=O)N1CCC[C@H]1C(=O)N[C@@H](CCCNC(=N)N)C(=O)N[C@H](C(=O)N[C@@H](CC(N)=O)C(=O)N[C@H](C(=O)NCC(=O)N[C@@H](CO)C(=O)NCC(=O)N[C@H](C(=O)N1CCC[C@H]1C(N)=O)[C@@H](C)O)[C@@H](C)O)[C@@H](C)O)[C@@H](C)O` [Compound 3, Cys-Ser-Asn-Leu-Ser-Thr-Cys-Val-Leu-Gly-Lys-Leu-Ser-Gln-Glu-Leu-His-Lys(PEG3CH2CO-yGlu-eicosanedioic acid)-Leu-Gln-Thr-Tyr-Pro-Arg-Thr-Asn-Thr-Gly-Ser-Gly-Thr-Pro-NH2], the “Relative Activity%” value was 256.8%.
